Consider 22 molecules from patent US5889026A, “4-hydroxy-piperodine derivatives” (Hoffmann-La Roche Inc., priority 1996, dated 1999).

For experiment [1], the target named is T1, 3H-Ro 25-6981 binding (NMDA receptor) (Rattus norvegicus, UniProt P35439+Q00960).
T1 construct: NR1 splice forms mixed
Briefly: 3H-Ro 25-6981 binding. Conditions: rat brain membranes (minus cerebellum and medulla oblongata); 5 nM 3H-Ro 25-6981; 2 hours at 4° C., pH 7.4.

Experiment [2] deals with 3H-Prazosine binding. Kind of experiment: 3H-Prazosine binding. Conditions: rat brain membranes (minus cerebellum and medulla oblongata); 0.2 nM 3H-Prazosine; 30 minutes at room temperature, pH 7.4. As to the method:
3H-Prazosine binding Male Fullinsdorf albino rats weighing between 150-200 g were used. Membranes were prepared by homogenization of the whole brain minus cerebellum and medulla oblongata with a Plytron (10.000 rpm, 30 seconds), in 25 volumes of a cold Tris-HCl 50 mM, EDTA 10 mM, pH 7.1 buffer. The homogenate was centrifuged at 48.000 g for 10 minutes at 4° C. The pellet was resuspended using the Polytron in the same volume of buffer and the homogenate was incubated at 37° C. for 10 minutes. After centrifugation, the pellet was homogenized in the same buffer and frozen at -80° C. for at least 16 hours but not more than 10 days. For the binding assay the homogenate was thawed at 37° C., centrifuged and the pellet was washed three times as above in a Tris-HCl 5 mM, pH 7.4 cold buffer. The final pellet was resuspended in the same buffer and used at a final concentration of […]. 3H-Prazosine binding experiments were performed using a Tris-HCl 50 mM, pH 7.4 buffer. For displacement experiments 0.2 nM of 3H-Prazosine were used and non specific binding was measured using […] of Chlorpromazine. The incubation time was 30 minutes at room temperature and the assay was stopped by filtration on Whatman GF/B glass fiber filters (Unifilter-96, Canberra Packard S. A., Zurich, Switzerland). The filters were washed 5 times with cold buffer. The radioactivity on the filter was counted on a Packard Top-count microplate scintillation counter after addition of […] of microscint 40 (Canberra Packard S. A., Zurich, Switzerland). The effects of compounds were measured using a minimum of 8 concentrations and repeated at least once. The pooled normalized values were analyzed using a non-linear regression calculation program which provide IC50 with their relative upper and lower 95% confidence limits (RS1, BBN, USA).

For experiment [3], the target named is T2, NR1C + NR2A (NMDAR1C-NMDAR2A) (Rattus norvegicus, UniProt Q00959).
T2 construct: expressed in transfected cells; host or cells: Xenopus laevis oocytes injected with mRNA (1:1 mixture)
T2 sequence (Q00959 23-1464, other chains not shown): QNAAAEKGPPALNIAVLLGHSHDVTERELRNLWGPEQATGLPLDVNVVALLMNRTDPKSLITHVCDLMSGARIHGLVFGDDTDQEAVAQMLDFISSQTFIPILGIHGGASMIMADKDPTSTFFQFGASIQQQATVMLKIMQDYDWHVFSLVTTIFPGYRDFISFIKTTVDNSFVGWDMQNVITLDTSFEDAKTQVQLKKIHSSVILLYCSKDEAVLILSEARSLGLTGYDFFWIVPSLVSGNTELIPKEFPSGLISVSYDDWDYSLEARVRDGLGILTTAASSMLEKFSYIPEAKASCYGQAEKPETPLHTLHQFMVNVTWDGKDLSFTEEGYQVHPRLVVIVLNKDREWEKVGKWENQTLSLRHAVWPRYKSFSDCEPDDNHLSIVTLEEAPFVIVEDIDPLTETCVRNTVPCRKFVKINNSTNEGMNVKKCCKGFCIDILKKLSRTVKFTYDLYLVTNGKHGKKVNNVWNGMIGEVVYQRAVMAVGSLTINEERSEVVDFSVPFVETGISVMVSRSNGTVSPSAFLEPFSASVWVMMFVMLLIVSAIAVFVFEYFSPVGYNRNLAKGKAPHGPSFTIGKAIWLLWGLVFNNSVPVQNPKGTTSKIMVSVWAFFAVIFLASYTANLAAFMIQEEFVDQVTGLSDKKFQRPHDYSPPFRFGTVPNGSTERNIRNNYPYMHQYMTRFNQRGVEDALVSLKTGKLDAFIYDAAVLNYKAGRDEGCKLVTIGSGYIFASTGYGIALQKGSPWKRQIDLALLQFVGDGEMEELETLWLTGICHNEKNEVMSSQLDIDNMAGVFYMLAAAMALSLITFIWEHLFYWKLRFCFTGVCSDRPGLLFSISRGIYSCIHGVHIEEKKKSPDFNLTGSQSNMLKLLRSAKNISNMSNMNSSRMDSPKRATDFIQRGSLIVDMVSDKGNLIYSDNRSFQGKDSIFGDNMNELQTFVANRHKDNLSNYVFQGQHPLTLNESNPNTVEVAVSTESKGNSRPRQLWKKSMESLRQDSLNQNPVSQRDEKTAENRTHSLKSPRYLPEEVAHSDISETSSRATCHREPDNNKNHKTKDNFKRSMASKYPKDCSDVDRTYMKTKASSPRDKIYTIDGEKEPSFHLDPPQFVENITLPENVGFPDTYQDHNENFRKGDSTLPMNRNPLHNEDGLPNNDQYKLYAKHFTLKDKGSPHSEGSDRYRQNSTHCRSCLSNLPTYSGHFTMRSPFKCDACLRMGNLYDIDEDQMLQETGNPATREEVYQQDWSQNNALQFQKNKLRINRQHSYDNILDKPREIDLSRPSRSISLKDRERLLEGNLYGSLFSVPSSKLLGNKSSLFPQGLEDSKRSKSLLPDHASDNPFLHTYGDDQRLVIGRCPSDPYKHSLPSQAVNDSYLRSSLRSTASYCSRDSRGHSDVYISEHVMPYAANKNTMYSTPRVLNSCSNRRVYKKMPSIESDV
Kind of experiment: Electrophysiology on recombinant NMDA receptors, NR1C + NR2A, Xenopus laevis oocytes. Format: cell-based. Conditions: read-out: Electrophysiology, % block by 10 μM, NR1C + NR2A.
Experimental: (§1) Oocytes of South African frogs (Xenopus laevis) were used for expressing either a combination of the NMDAR1C and NMDAR2A subunits or the NMDAR1C and NMDAR2B subunits. Approximately 3 fmol of a 1:1 mixture of the respective MRNA species were injected into every oocyte. Four to five days later, the ion current through the NMDA receptor channels was measured in voltage clamp experiments (see Methfessel et al., 1986, Pflugers Arch. 407:577 for the methods of oocyte expression and voltage-clamping). The membrane potential was clamped to -80 mV and the receptors were activated by applying a modified Ringer,s solution containing the NMDA-receptor agonists L-asparatate (Asp) and glycine (Gly). Different agonist concentrations were chosen for either subunit combination to account for the different agonist sensitivities of the two types of receptors (70 mM Asp plus 2.5 mM Gly for NMDAR1C-NMDAR2A and 15 mM Asp plus 0.2 mM Gly for NMDAR1C-NMDAR2B). The agonists were applied for 15 s intervals once every 2.5 min by rapid superfusion of the oocyte with agonist containing solution and the amplitude of the agonist-evoked current was measured immediately before the end of each application. After a series of initial control applications, the antagonist to be tested was added to both, the basal Ringer,s and the agonist containing solution. The antagonist concentration applied to oocytes expressing the NR2A subunit was 10 mmol/l, whereas 0.1 mmol/l were applied to the NR2B expressing oocytes. Four to eight oocytes were tested for every compound and NMDA receptor subtype. Oocytes were exposed to the compounds for 5 to 30 min depending on the time needed for reaching an equilibrium block of the NMDA receptor current. For every oocyte the decrease of the current amplitude was expressed as a percentage of the control current measured before application of the compound.

Experiment [4] concerns the target T3, NR1C + NR2B (NMDAR1C-NMDAR2B) (Rattus norvegicus, UniProt P35439+Q00960).
T3 construct: expressed in transfected cells; host or cells: Xenopus laevis oocytes injected with mRNA (1:1 mixture)
Briefly: Electrophysiology on recombinant NMDA receptors, NR1C + NR2B, Xenopus laevis oocytes. Format: cell-based. Conditions: read-out: Electrophysiology, % block by 0.1 μM, NR1C + NR2B.
Experimental: as §1

Setting [5] is: 10 μM compound, Xenopus laevis oocytes, -80 mV, mean of four to eight oocytes.
Where [6] appears, read: 0.1 μM compound, Xenopus laevis oocytes, -80 mV, mean of four to eight oocytes.

Where a name gives a salt, the structure may show the parent alone. Read-outs that look alike come from different tables or passages of the source.

T3 sequence (Q00960 27-1482, other chains not shown): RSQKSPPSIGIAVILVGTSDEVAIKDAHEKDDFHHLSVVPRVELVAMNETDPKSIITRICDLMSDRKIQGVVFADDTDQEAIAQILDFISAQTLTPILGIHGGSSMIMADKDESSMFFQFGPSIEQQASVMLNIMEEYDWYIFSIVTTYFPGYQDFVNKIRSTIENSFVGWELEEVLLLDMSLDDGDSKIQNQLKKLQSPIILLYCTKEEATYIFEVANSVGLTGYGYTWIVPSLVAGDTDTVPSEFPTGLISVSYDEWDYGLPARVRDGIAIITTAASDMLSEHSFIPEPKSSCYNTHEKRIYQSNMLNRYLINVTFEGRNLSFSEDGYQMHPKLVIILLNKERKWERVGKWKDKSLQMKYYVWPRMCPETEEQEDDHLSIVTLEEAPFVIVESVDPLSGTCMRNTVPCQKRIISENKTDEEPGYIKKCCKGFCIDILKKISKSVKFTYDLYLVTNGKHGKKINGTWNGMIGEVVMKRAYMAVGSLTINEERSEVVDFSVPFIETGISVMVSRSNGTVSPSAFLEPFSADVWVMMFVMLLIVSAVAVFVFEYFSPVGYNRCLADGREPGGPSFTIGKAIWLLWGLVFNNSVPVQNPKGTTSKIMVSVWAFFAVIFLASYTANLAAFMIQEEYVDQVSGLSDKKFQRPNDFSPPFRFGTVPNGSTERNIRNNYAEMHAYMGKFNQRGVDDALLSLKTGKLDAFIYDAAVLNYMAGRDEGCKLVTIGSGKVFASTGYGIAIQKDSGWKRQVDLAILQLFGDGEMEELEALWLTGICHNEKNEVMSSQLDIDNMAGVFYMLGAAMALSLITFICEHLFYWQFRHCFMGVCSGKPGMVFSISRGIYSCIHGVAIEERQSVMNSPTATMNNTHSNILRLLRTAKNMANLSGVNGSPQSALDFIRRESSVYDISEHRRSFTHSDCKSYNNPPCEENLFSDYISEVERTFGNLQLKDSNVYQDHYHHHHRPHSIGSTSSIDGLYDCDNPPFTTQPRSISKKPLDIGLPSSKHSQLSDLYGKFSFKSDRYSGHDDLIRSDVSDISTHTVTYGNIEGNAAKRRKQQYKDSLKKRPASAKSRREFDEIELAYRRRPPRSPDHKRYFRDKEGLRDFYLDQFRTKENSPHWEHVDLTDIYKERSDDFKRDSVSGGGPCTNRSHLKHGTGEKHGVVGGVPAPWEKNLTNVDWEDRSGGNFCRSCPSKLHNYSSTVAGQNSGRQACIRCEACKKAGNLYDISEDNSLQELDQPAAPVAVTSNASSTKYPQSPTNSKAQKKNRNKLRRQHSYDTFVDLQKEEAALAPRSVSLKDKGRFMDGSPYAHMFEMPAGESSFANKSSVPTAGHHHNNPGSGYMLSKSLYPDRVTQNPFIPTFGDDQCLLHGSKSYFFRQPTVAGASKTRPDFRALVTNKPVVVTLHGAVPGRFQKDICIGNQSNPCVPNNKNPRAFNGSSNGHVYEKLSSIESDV
T1 sequence (Q00960 27-1482, other chains not shown): as above

As to `Cc1ccc(CC2(O)CCN(C/C=C/c3ccc(O)cc3)CC2)cc1` [V/41, (E)-1-[3-(4-Hydroxy-phenyl)-allyl]-4-(4-methyl-benzyl)-piperidin-4-ol], the IC50 in experiment [1] stood at 8 nM; in experiment [2], 3000 nM.

With `CS(=O)(=O)Nc1ccc(OCCN2CCC(O)(Cc3ccc(Cl)cc3)CC2)cc1` [G/13, N-(4-{2-[4-(4-Chloro-benzyl)-4-hydroxy-piperidin-1-yl]-ethoxy}-phenyl)-methanesulfonamide], the IC50 in experiment [1] came to 30 nM; in experiment [2], 9000 nM.

Take `Cc1ccc(CC2(O)CCN(C(C)COc3ccc(O)cc3)CC2)cc1` (stereo not drawn) [I/22, 1-[2-(4-Hydroxy-phenoxy)-1-methyl-ethyl]-4-(4-methyl-benzyl)-piperidin-4-ol]: the 50% inhibitory concentration (IC50) came to 40 nM in experiment [1] and 2500 nM in experiment [2].

On to `CS(=O)(=O)Nc1ccc(OCCN2CCC(O)(Cc3ccc(F)cc3)CC2)cc1` [F/12, N-(4-{2-[4-(4-fluoro-benzyl)-4-hydroxy-piperidin-1-yl]-ethoxy}-phenyl)-methanesulfonamide], for which the 50% inhibitory concentration (IC50) stood at 60 nM in experiment [1] and 6000 nM in experiment [2].

Take `Cc1ccc(CC2(O)CCN(CC(=O)Nc3ccc(O)cc3)CC2)cc1` [K/24, 2-[4-Hydroxy-4-(4-methyl-benzyl)-piperidin-1-yl]-N-(4-hydroxy-phenyl)-acetamide]: the IC50 in experiment [1] was determined as 40 nM; in experiment [2], 30000 nM. In experiment [3] (setting [5]), the inhibition at 10 µM worked out at 10%. Further, the inhibition at 0.1 µM in experiment [4] (setting [6]) stood at 83%.

With `Cc1ccc(CC2(O)CCN(CCCOC(=O)c3ccc(O)cc3)CC2)cc1` [P/35, 4-Hydroxy-benzoic acid 3-[4-hydroxy-4-(4-methyl-benzyl)-piperidin-1-yl]-propylester], the figures for the IC50 in experiment [1] and in experiment [2] were 3 nM and 260 nM, respectively.

`Cc1ccc(CC2(O)CCN(CCCNC(=O)c3ccc(O)cc3)CC2)cc1` [T/39, 4-Hydroxy-N-[3-[4-hydroxy-4-(4-methyl-benzyl)-piperidin-1-yl]-propyl]-benzamide]: the IC50 turned out to be 9 nM in experiment [1] and 2300 nM in experiment [2].

`Oc1ccc(CC(O)CN2CCC(O)(Cc3ccccc3)CC2)cc1` (racemic) [L/30, (RS)-4-Benzyl-1-[2-hydroxy-3-(4-hydroxy-phenyl)-propyl]-piperidin-4-ol]: the IC50 in experiment [1] worked out at 60 nM; in experiment [2], 7400 nM.

Consider `Cc1ccc(CC2(O)CCN(CCOc3ccc(O)cc3)CC2)cc1` [C/9, 1-[2-(4-Hydroxy-phenoxy)-ethyl]-4-(4-methyl-benzyl)-piperidin-4-ol], for which, in experiment [2], the IC50 turned out to be 3500 nM. Moreover, the inhibition at 10 µM in experiment [3] (setting [5]) worked out at 31%. In experiment [4] (setting [6]), the inhibition at 0.1 µM is 88%.

`Cc1ccc(CC2(O)CCN(CC(O)COc3ccc(O)cc3)CC2)cc1` (racemic) [A/1, (RS)-1-[2-Hydroxy-3-(4-hydroxy-phenoxy)-propyl]-4-(4-methyl-benzyl)-piperidin-4-ol hydrochloride]: the IC50 turned out to be 15 nM in experiment [1] and 1500 nM in experiment [2]. Moreover, in experiment [3], the inhibition at 10 µM is 29%. The inhibition at 0.1 µM in experiment [4] worked out at 96%.

With `Oc1ccc(OCCN2CCC(O)(Cc3ccc(F)cc3)CC2)cc1` [D/10, 4-(4-Fluoro-benzyl)-1-[2-(4-hydroxy-phenoxy)-ethyl]-piperidin-4-ol], the IC50 in experiment [1] is 40 nM; in experiment [2], 3000 nM.

In the case of `O=C(CN1CCC(O)(Cc2ccccc2)CC1)Nc1ccc(O)cc1` [J/23, 2-(4-Benzyl-4-hydroxy-piperidin-1-yl)-N-(4-hydroxy-phenyl)-acetamide], the figures for the IC50 in experiment [1] and in experiment [2] were 70 nM and 20000 nM, respectively.

`O=C(NCCCN1CCC(O)(Cc2ccccc2)CC1)c1ccc(O)cc1` [S/38, N-[3-(4-Benzyl-4-hydroxy-piperidin-1-yl)-propyl]-4-hydroxy-benzamide]: the results for the IC50 in experiment [1] and in experiment [2] were 16 nM and 7300 nM, respectively.

`Oc1ccc(OC[C@@H](O)CN2CCC(O)(Cc3ccccc3)CC2)cc1` [B/5, (S)-4-Benzyl-1-[2-hydroxy-3-(4-hydroxy-phenoxy)-propyl]-piperidin-4-ol]: the IC50 in experiment [1] was 60 nM; in experiment [2], 4000 nM.

As to `Cc1ccc(CC2(O)CCN(CCOc3ccc(NS(C)(=O)=O)cc3)CC2)cc1` [E/11, N-(4-{2-[4-hydroxy-4-(4-methyl-benzyl)-piperidin-1-yl]-ethoxy}-phenyl)-methanesulfonamide hydrochloride], the IC50 in experiment [1] is 30 nM; in experiment [2], 5000 nM. Besides, the inhibition at 10 µM in experiment [3] turned out to be 27%. In experiment [4], the inhibition at 0.1 µM came to 91%.

Turning to `Oc1ccc(CC(O)CN2CCC(O)(Cc3ccc(Cl)cc3)CC2)cc1` (racemic) [N/32, (RS)-4-(4-Chloro-benzyl)-1-[2-hydroxy-3-(4-hydroxy-phenyl)-propyl]-piperidin-4-ol], the IC50 in experiment [1] is 40 nM; in experiment [2], 9200 nM. In experiment [3] (setting [5]), the inhibition at 10 µM was 19%. Besides, the inhibition at 0.1 µM in experiment [4] (setting [6]) was found to be 81%.

`Cc1ccc(CC2(O)CCN(CC(O)Cc3ccc(O)cc3)CC2)cc1` (racemic) [M/31, (RS)-1-[2-Hydroxy-3-(4-hydroxy-phenyl)-propyl]-4-(4-methyl-benzyl)-piperidin-4-ol]: the values for the IC50 in experiment [1] and in experiment [2] were 20 nM and 9700 nM, respectively. Further, in experiment [3] (setting [5]), the inhibition at 10 µM was 10%. For the same molecule, the inhibition at 0.1 µM in experiment [4] (setting [6]) was 89%.

Take `CS(=O)(=O)Nc1ccc(OCCCN2CCC(O)(Cc3ccc(F)cc3)CC2)cc1` [H/14, N-(4-{3-[4-(4-Fluoro-benzyl)-4-hydroxy-piperidin-1-yl]-propoxy}-phenyl)-methanesulfonamide]: the figures for the IC50 in experiment [1] and in experiment [2] were 40 nM and 1800 nM, respectively.

Consider `O=C(NCCN1CCC(O)(Cc2ccccc2)CC1)c1ccc(O)cc1` [Q/36, N-[2-(4-Benzyl-4-hydroxy-piperidin-1-yl)-ethyl]-4-hydroxy-benzamide], for which the IC50 in experiment [1] turned out to be 10 nM; in experiment [2], 5000 nM.

On to `Cc1ccc(CC2(O)CCN(CCNC(=O)c3ccc(O)cc3)CC2)cc1` [R/37, 4-Hydroxy-N-[2-[4-hydroxy-4-(4-methyl-benzyl)-piperidin-1-yl]-ethyl]-benzamide], for which the IC50 in experiment [1] was 6 nM; in experiment [2], 5300 nM. Besides, the inhibition at 10 µM in experiment [3] (setting [5]) is 8%. Moreover, the inhibition at 0.1 µM in experiment [4] (setting [6]) came out at 42%.

As for `Cc1ccc(CC2(O)CCN(CCOC(=O)c3ccc(O)cc3)CC2)cc1` [O/34, 4-Hydroxy-benzoic acid 2-[4-hydroxy-4-(4-methyl-benzyl)-piperidin-1-yl]ethylester], the IC50 in experiment [1] came out at 10 nM; in experiment [2] it was 800 nM.

With `Cc1ccc(CC2(O)CCN(CC(O)Cc3ccc(O)c(F)c3)CC2)cc1` (racemic) [W/94, (RS)-1-[3-(3-Fluoro-4-hydroxy-phenyl)-2-hydroxy-propyl]-4-(4-methyl-benzyl)-piperidin-4-ol hydrochloride], the results for the IC50 in experiment [1] and in experiment [2] were 20 nM and 6600 nM, respectively.
